In patent US20210054047A1, “NOVEL ANTICANCER FUSION PROTEIN AND USE THEREOF” (KOREA INSTITUTE OF SCIENCE AND TECHNOLOGY, priority 2018, published 2021):

Assays:
[1] = system: cleaved form of caspase-3; assay: Western blot of HT29 lysates: cleaved caspase-3; assay type: cell-based, human; conditions: HT29, 50 nM, 24 hours
Procedure: After incubating HT29 cells with 50 nM DOX-TTPNs, DOX-FTNs, free DOX, or buffer for 24 hours, cells were lysed with radioimmunoprecipitation assay (RIPA) buffer (Cell Signaling Technology) and the concentration of proteins was measured using a DC protein assay kit (Bio-Rad). Equal amounts of proteins (30 μg) were resolved by SDS-PAGE and transferred to nitrocellulose membranes. After blocking with 5% skim milk in Tris-buffered saline containing 0.1% Tween-20 (TBST), membranes were incubated first with anti-Cl-PARP, anti-Cl-caspase-6, anti-cFLIP, anti-Bcl-xL, anti-XIAP, anti-Cl-caspase-3, or anti-GAPDH primary antibody (Cell Signaling Technology), and then with anti-mouse or anti-rabbit secondary antibodies (Sigma-Aldrich), as appropriate. Immunoreactive proteins were visualized using enhanced chemiluminescence (ECL) chemical reagents (Bio-Rad) and ChemiDoc (Bio-Rad), and were analyzed using ImageJ software.

DR4 = target: T1, DR4 (Homo sapiens, UniProt O00220); assay: SPR binding to immobilized DR4-Fc
T1 construct: purchased R&D systems 347-DR-100
Procedure: Binding experiments of TTPN and mTRAIL to TRAIL receptors DR4 and DR5 were analyzed at 25° C. using a surface plasmon resonance apparatus (SR7500 DC, Reichert Inc., NY, USA). DR4 and DR5-fc chimeric proteins (R&D systems 347-DR-100, 631-T2-100) were immobilized on the surface of the Planar Protein A sensor chip (Reichert, 13206069) and the receptors were coated at a level of 300 to 500 resonance units. SPR kinetic titrations were performed by adding 250 μl of TTPN and mTRAIL with different concentrations in the range of 1.56 to 400 nM and 0.1 to 25.6 μM, respectively, increasing by four times. Each analyte was run at 50 μL/min using running and sample buffer (0.5 M Tris-HCl (pH 7.4), 150 mM NaCl, 0.005% Tween 20), and binding of the ligand to the receptor was performed and monitored in real time. For titration sensorgrams, a simple 1:1 Langmuir interaction model (A+B↔AB) was applied using the data analysis program Scrubber 2.0 (BioLogic Software, Australia, and KaleidaGraph Software, Australia) and CLAMP software.
The affinity KD was determined from the formula of KD=kd/ka. Results are based on representative sensorgrams obtained from saturation binding reactions averaged over at least three independent runs of SPR measurements (FIG. 31).

HepG2 tumor = assay: Antitumor efficacy, HepG2 xenograft; assay type: in vivo, mouse
Excerpt: In the evaluation of the anti-tumor effect of the present invention, BALB/c nude male mice (6-7 weeks old) were used as an animal model. Particularly, HT29 cells (5×10^6) and HepG2 cells (5×10^6) were subcutaneously inoculated into the left dorsal flank of BALB/c nude mice, respectively. After a volume of tumors reached ˜80-100 mm^3, mice were randomly divided into the 14 following five treatment groups (6 mice/group); DOX-TTPNs, DOX-FTNs, free DOX, empty TTPNs, and buffer. Mice were intravenously injected five times, once every 2 days, and volume of tumors was determined as 1/2(Length×Width^2). Apoptotic cell death in tumor tissues was analyzed using TUNEL staining (In situ Cell Death Detection kit; Roche), and cells were stained with DAPI (4′,6-diamidino-2-phenylindole), as previously described (Kih et al., Biomaterials 180: 67-77, 2018). Apoptotic cells were visualized under a Nikon Eclipse Ti microscope (Nikon) and quantified as the number of TUNEL-positive cells per total number of cells using ImageJ software. After 21 days from injecting tumor cells, tumor tissues were excised from the experimental mice, and cryo-sections (3.5 μm) were fixed with 10% neutral buffered formalin and paraffin-embedded tissue blocks.
In addition, to investigate whether tumor growth inhibition by TTPN is induced by apoptosis-inducing activity on tumor cells, tumor tissues from the treated mice were analyzed. On the 15th day after the first injection, mice were euthanized, and apoptosis of tumor tissues was analyzed using terminal deoxynucleotidyl transferase dUTP nick end labeling (TUNEL) staining.

HepG2 cells = assay: Annexin V/PI flow cytometry of apoptosis, HepG2; assay type: cell-based, human; conditions: for surviving tumor cells (Annexin V/PI double negative): 24 hours
Procedure: FIG. 19 is a series of histograms representing flow cytometry analysis of TRAIL-mediated apoptosis of HepG2 cells as an analysis of in vitro TTPN-mediated apoptosis on TRAIL-sensitive-HepG2 cells. Cells were incubated for 24 hours in the presence of different concentrations of mTRAIL and TTPN and analyzed by Annexin V/PI double staining.
In addition, to investigate whether apoptosis induced by TTPN is induced by the pro-apoptosis pathway of tumor cells, fluorescence-activated cell sorting (FACS) using double staining of Annexin V/propidium iodide (PI) was performed. […] (FIG. 21).

DR5 = assay: Western blot time course of DR5 levels in HT29; assay type: cell-based, human; conditions: HT29, 4, 12 and 24 hours
[2] = In vitro stability (soluble protein in buffer over time); assay type: physicochemical
Procedure: The stability of TTPN, DOX-TTPN and mTRAIL was investigated by measuring changes of concentration in a suitable buffer solution. […] At predetermined times, aggregated proteins were collected at 13,000 rpm for 10 minutes, and the concentration of soluble DOX-TTPN and TTPN in the supernatant was measured using absorbance in UV280.

HEK293T cells = assay: Cell viability, CCK-8 assay, HEK293T normal cells; assay type: cell-based; conditions: HEK293T normal cells (FIG. 18)
Procedure: After culturing for 24 hours, cell viability was measured using a cell counting kit (CCK)-8 assay (Dojindo Molecular Technologies, Gaithersburg, Md.). The plate was then read with an absorbance microplate reader (Spectramax 340, Molecular Devices Corporation) at a wavelength of 450 nm and 50% effective by regression analysis using SigmaPlot software (Systat Software, Inc., San Jose, Calif.). The concentration value was calculated.

HT29 tumor [3] = assay: TUNEL analysis of HT29 tumor tissue; assay type: in vivo, mouse; conditions: HT29 tumor tissue at the end of the study
HT29 tumor [4] = assay: Antitumor efficacy, HT29 xenograft; assay type: in vivo, mouse; conditions: i.v. five times every 2 days, DOX-TTPNs 30 mg/kg, DOX 0.4 mg/kg, DOX-FTNs 15 mg/kg, empty TTPNs 30 mg/kg
Procedure: To this end, HT29 cells were implanted in mice, and after tumor volumes reached approximately 80˜100 mm^3, mice were intravenously injected with 30 mg/kg of DOX-TTPNs (equivalent to a DOX dose of 0.4 mg/kg), 0.4 mg/kg of DOX, 15 mg/kg of DOX-FTNs (equivalent to the number of moles of ferritin in a dose of TTPNs), or 30 mg/kg of empty TTPNs (equivalent to the number of moles of TRAIL in a dose of TTPNs) five times every 2 days, respectively.

T1 sequence (O00220 with tags, fused parts or gaps limits assumed): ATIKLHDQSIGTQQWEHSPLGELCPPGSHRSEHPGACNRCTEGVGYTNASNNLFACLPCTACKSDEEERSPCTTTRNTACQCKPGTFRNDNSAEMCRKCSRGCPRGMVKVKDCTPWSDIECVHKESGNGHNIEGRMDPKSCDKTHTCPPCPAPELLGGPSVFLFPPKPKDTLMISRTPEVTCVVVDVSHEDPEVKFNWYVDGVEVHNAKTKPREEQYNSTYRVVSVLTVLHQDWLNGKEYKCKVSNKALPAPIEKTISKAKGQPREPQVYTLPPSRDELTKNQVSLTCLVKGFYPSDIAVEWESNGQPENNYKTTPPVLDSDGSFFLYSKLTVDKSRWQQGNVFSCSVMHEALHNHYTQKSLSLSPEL

For “TTPN: protein nanocage presenting TRAIL as natural-like homo-trimers; TRAIL 95-281 fused by linker peptide to human ferritin heavy chain”, the “cleaved caspase-3 (and PARP) expression” value [1] was “little change”, the ka (DR4; DR4-Fc immobilized, 25° C.) was 3.23 (±0.26) · 10^4 M^−1 · S^−1 and the kd (DR4; DR4-Fc immobilized, 25° C.) was 2.42 (±0.48) · 10^−5 s^−1. The “increased affinity compared with monomeric TRAIL” value (DR4; for DR4 and DR5) was “up to 330 fold”, the “tumor volume inhibition relative to mTRAIL” value (HepG2 tumor) was 3.1 times and the “inhibition of tumor volume” value (HepG2 tumor; i.v. every 2 days, TTPN 23 mg/kg, mTRAIL 12 mg/kg) was 80.52%. The “surviving tumor cells (Annexin V/PI double negative)” value (HepG2 cells; HepG2, 0.4 nM) was 83.5%, the “surviving tumor cells (Annexin V/PI double negative)” value (HepG2 cells; HepG2, 100 nM) was 12.0% and the “concentration at which Annexin V-positive cells were detected” value (HepG2 cells; HepG2, 24 hours (FIG. 20)) was 0.4 nM. For the same substance, the “DR5 expression levels over time” value (DR5) was “no significant change”, the “stability in solution” value ([2]; 15 mg/mL in PBS buffer for 24 hours (FIG. 15)) was “remarkably improved stability” and the “amount maintained in the soluble form” value ([2]; after 1 month, 10 mg/mL (FIG. 16)) was “more than 90%”. The “apoptosis” value (HEK293T cells) was “low apoptosis rate”, the TUNEL-positive tumor cells (HT29 tumor [3]) was 0.01% and the “decrease of tumor volumes” value (HT29 tumor [4]) was “no significant tumor-inhibition effect”.
